Consider 17 compounds from PubChem BioAssay (NCI).

Among the test systems are SW-620 colon; HOP-92 NSCLC; UACC-257 melanoma; SK-MEL-28 melanoma; HCT-15 colon; SR leukemia; IGROV1 ovarian; HOP-62 NSCLC; U251 CNS; MDA-MB-231 breast.
Common to all, as to test: NCI-60 cell line screen, 48 h

SMILES strings stand for the structures.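 96-well plates; 48 h exposure; 5 concentrations. Endpoints by linear interpolation between flanking doses. Not reached: highest tested concentration assigned. GI50 = concentration required for 50% inhibition of growth. The concentration for full growth arrest is given as TGI.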 A value given as a limit tells only on which side of the number the result lay.

Turning to `c1ccc2c(c1)oc1ccc3nsnc3c12`, the TGI in the assay on SW-620 colon, in the assay on HOP-92 NSCLC, in the assay on UACC-257 melanoma, in the assay with SK-MEL-28 melanoma, in the assay with HCT-15 colon and in the assay with SR leukemia was more than 100 µM throughout. In the assay on IGROV1 ovarian, this compound yielded a TGI of more than 100 µM.
With `COc1ccc(/C(Cl)=C/c2cc(OC)ccc2OC)cc1`, the TGI in the assay on SW-620 colon, in the assay on HOP-92 NSCLC, in the assay with HOP-62 NSCLC, in the assay on UACC-257 melanoma, in the assay on U251 CNS and in the assay with SK-MEL-28 melanoma was more than 100 µM in each case. The TGI in the assay on HCT-15 colon, in the assay on SR leukemia and in the assay on IGROV1 ovarian was more than 100 µM in each case.
For the compound `COc1ccc(CCc2cc(OC)cc(OC)c2)cc1`, the TGI was more than 67.3 µM in the assay with SW-620 colon; more than 100 µM with HOP-92 NSCLC; more than 100 µM in the assay on HOP-62 NSCLC; more than 100 µM in the assay with UACC-257 melanoma; more than 100 µM with U251 CNS; more than 100 µM with SK-MEL-28 melanoma. The TGI in the assay on HCT-15 colon, with SR leukemia and in the assay on IGROV1 ovarian was more than 100 µM each time.
With `CC(=O)O[C@]1(C)OC(=O)[C@@H](CC(C)C)N1[N+](=O)[O-]`, the TGI with SW-620 colon, in the assay with HOP-62 NSCLC, in the assay with UACC-257 melanoma, with U251 CNS, in the assay with SK-MEL-28 melanoma and with HCT-15 colon was more than 100 µM each time. Further, the TGI in the assay with SR leukemia and with IGROV1 ovarian was more than 100 µM throughout.
With `COC(=O)C1=C(C(=O)OC)C2(C)C=CC1O2` (stereo not drawn), the TGI in the assay on SW-620 colon is 17.2 µM; with MDA-MB-231 breast, 31 µM; with HOP-92 NSCLC it was 24.4 µM; in the assay with HOP-62 NSCLC, more than 100 µM; in the assay on UACC-257 melanoma, 29.4 µM; in the assay on U251 CNS, 31.9 µM. For the same compound, the TGI in the assay with SK-MEL-28 melanoma is 29.5 µM; in the assay with HCT-15 colon it was 29.7 µM; in the assay with IGROV1 ovarian, 37.5 µM.
`Cc1c(NC(=S)NC(=O)c2ccc([N+](=O)[O-])cc2)c(=O)n(-c2ccccc2)n1C`: the TGI in the assay on SW-620 colon, in the assay with HOP-92 NSCLC, in the assay with HOP-62 NSCLC, with UACC-257 melanoma, in the assay on U251 CNS and in the assay with SK-MEL-28 melanoma was more than 100 µM in each case. The TGI with HCT-15 colon, in the assay with SR leukemia and in the assay with IGROV1 ovarian was more than 100 µM each time.
For the compound `O=c1/c(=C\c2ccc(F)cc2)sc2n1C(c1ccc(F)cc1)C1=C(N=2)c2ccc3ccccc3c2OCC1` (stereo not drawn), the GI50 with SW-620 colon, in the assay on MDA-MB-231 breast, with HOP-62 NSCLC, with UACC-257 melanoma, with U251 CNS and in the assay with SK-MEL-28 melanoma was more than 100 µM throughout. Moreover, the results for the GI50 with HCT-15 colon and in the assay on IGROV1 ovarian were 7.17 µM and more than 100 µM, respectively. For the same compound, the TGI with SW-620 colon, in the assay with MDA-MB-231 breast, with HOP-92 NSCLC, in the assay on HOP-62 NSCLC, in the assay on UACC-257 melanoma and in the assay with U251 CNS was more than 100 µM in each case. The TGI in the assay on SK-MEL-28 melanoma, with HCT-15 colon and with IGROV1 ovarian was more than 100 µM in each case.
In the case of `CN(C)c1nc2ccccc2c2c1c1c(n2Cc2ccccc2)-c2ccccc2C1=O`, the GI50 is more than 100 µM in the assay with SW-620 colon; more than 100 µM in the assay with MDA-MB-231 breast; 13 µM in the assay with HOP-92 NSCLC; more than 100 µM in the assay on HOP-62 NSCLC; more than 100 µM in the assay with UACC-257 melanoma; more than 100 µM in the assay with U251 CNS. Moreover, the GI50 in the assay with SK-MEL-28 melanoma is more than 100 µM; in the assay with HCT-15 colon, more than 100 µM; with IGROV1 ovarian it was 27.2 µM. Further, the TGI in the assay on SW-620 colon, in the assay with MDA-MB-231 breast, with HOP-92 NSCLC, in the assay with HOP-62 NSCLC, in the assay on UACC-257 melanoma and with U251 CNS was more than 100 µM each time. The TGI in the assay with SK-MEL-28 melanoma, with HCT-15 colon and in the assay with IGROV1 ovarian was more than 100 µM throughout.
With `S=c1nc(N/N=C/c2ccco2)c2cn[nH]c2[nH]1`, the GI50 was 51 µM with SW-620 colon; more than 100 µM in the assay with MDA-MB-231 breast; 71.4 µM in the assay with HOP-92 NSCLC; more than 100 µM in the assay with HOP-62 NSCLC; more than 100 µM with UACC-257 melanoma; more than 100 µM in the assay with U251 CNS. Moreover, the GI50 with SK-MEL-28 melanoma is more than 100 µM; in the assay with HCT-15 colon, 50 µM; in the assay with IGROV1 ovarian, 46.9 µM. The TGI in the assay on SW-620 colon, with MDA-MB-231 breast, with HOP-92 NSCLC, with HOP-62 NSCLC, with UACC-257 melanoma and with U251 CNS was more than 100 µM each time. Further, the TGI in the assay on SK-MEL-28 melanoma, with HCT-15 colon and in the assay with IGROV1 ovarian was more than 100 µM each time.
In the case of `c1ccc2c(-c3nc(-c4c[nH]c5ccncc45)cs3)c[nH]c2c1`, the GI50 with SW-620 colon is 1.73 µM; in the assay with MDA-MB-231 breast, 1.06 µM; in the assay on HOP-92 NSCLC, 1.44 µM; in the assay on HOP-62 NSCLC, 1.71 µM; with UACC-257 melanoma it was 1.8 µM; in the assay with U251 CNS, 1.93 µM. Further, the GI50 in the assay on SK-MEL-28 melanoma was 1.84 µM; in the assay on HCT-15 colon it was 1.56 µM; with IGROV1 ovarian, 1.33 µM. The TGI with SW-620 colon was determined as 3.54 µM; in the assay on MDA-MB-231 breast, 2.53 µM; in the assay on HOP-92 NSCLC, 3.28 µM; in the assay with HOP-62 NSCLC, 4.27 µM; in the assay on UACC-257 melanoma it was 3.43 µM; in the assay on U251 CNS, 3.58 µM. Moreover, the TGI stood at 3.32 µM in the assay on SK-MEL-28 melanoma, 3.4 µM with HCT-15 colon and 3.83 µM with IGROV1 ovarian.
As for `COc1ncnc(S(=O)(=O)c2ccc(N=C3C(=O)N(CN4CCN(c5cc6c(cc5F)c(=O)c(C(=O)O)cn6C5CC5)CC4)c4ccc(Cl)cc43)cc2)c1OC`, the GI50 in the assay with SW-620 colon was more than 50 µM; with MDA-MB-231 breast, 28.5 µM; in the assay with HOP-92 NSCLC, more than 50 µM; in the assay with HOP-62 NSCLC, 31.6 µM; with UACC-257 melanoma it was 46.4 µM; with U251 CNS, 18.7 µM. The GI50 in the assay on SK-MEL-28 melanoma is more than 50 µM; in the assay on HCT-15 colon, 19.7 µM; in the assay on IGROV1 ovarian, more than 50 µM. Besides, the TGI with SW-620 colon, with MDA-MB-231 breast, in the assay on HOP-92 NSCLC, in the assay with HOP-62 NSCLC, in the assay on UACC-257 melanoma and in the assay on U251 CNS was more than 50 µM throughout. For the same compound, the TGI with SK-MEL-28 melanoma, with HCT-15 colon and in the assay with IGROV1 ovarian was more than 50 µM throughout.
`O=C(c1ccccc1)c1c(NCC(O)CN2CCOCC2)n(Cc2ccccc2)c(=O)n(Cc2ccccc2)c1=O` (stereo not drawn): the GI50 in the assay with SW-620 colon is 52.9 µM; with MDA-MB-231 breast, 28.8 µM; in the assay with HOP-92 NSCLC, 17.9 µM; with HOP-62 NSCLC, 96.9 µM; in the assay with UACC-257 melanoma, 55.8 µM; in the assay with U251 CNS it was 29.2 µM. The GI50 in the assay on SK-MEL-28 melanoma was more than 64.1 µM; with HCT-15 colon it was 34.4 µM; in the assay with IGROV1 ovarian, 38.5 µM. Moreover, the TGI in the assay with SW-620 colon is more than 100 µM; with MDA-MB-231 breast it was more than 100 µM; in the assay with HOP-92 NSCLC, 70.8 µM; in the assay on HOP-62 NSCLC, more than 100 µM; in the assay on UACC-257 melanoma it was more than 100 µM; with U251 CNS, more than 100 µM. For the same compound, the TGI with SK-MEL-28 melanoma, in the assay on HCT-15 colon and in the assay on IGROV1 ovarian was more than 100 µM each time.
Regarding `COC(=O)c1c2c(cc3c1CC1(Cc4cc5c(c(C(C)=O)c4C1)CCC5)C3)CCC2` (stereo not drawn), the TGI with SW-620 colon, in the assay on HOP-92 NSCLC, in the assay with HOP-62 NSCLC, in the assay with UACC-257 melanoma, with U251 CNS and in the assay on SK-MEL-28 melanoma was more than 100 µM each time. Besides, the TGI in the assay with SR leukemia and in the assay with IGROV1 ovarian was more than 100 µM each time.
With `COc1ccc(C(=O)C(CC2C(=O)NC(=O)NC2=O)c2ccc(OC)cc2)cc1` (stereo not drawn), the TGI in the assay on SW-620 colon, in the assay on HOP-62 NSCLC, in the assay with UACC-257 melanoma, with U251 CNS, with SK-MEL-28 melanoma and with HCT-15 colon was more than 100 µM throughout. Further, the TGI in the assay on SR leukemia and in the assay with IGROV1 ovarian was more than 100 µM throughout.
For the compound `CCCCCC[C@H](C)Nc1nc2ccccc2c2occc12`, the GI50 with SW-620 colon was 5.46 µM; in the assay with MDA-MB-231 breast it was 10.6 µM; with HOP-92 NSCLC, 5.18 µM; in the assay on HOP-62 NSCLC, 11.5 µM; with UACC-257 melanoma, 3.24 µM; with U251 CNS, 9.94 µM. The GI50 in the assay with SK-MEL-28 melanoma is 21.2 µM; with HCT-15 colon, 10.1 µM; in the assay with IGROV1 ovarian, 0.787 µM. Further, the TGI with SW-620 colon stood at 22.2 µM; in the assay on MDA-MB-231 breast, 24 µM; in the assay with HOP-92 NSCLC, 20.2 µM; in the assay with HOP-62 NSCLC, 23.9 µM; in the assay with UACC-257 melanoma, 16.3 µM; in the assay on U251 CNS, 21.7 µM. The TGI in the assay with SK-MEL-28 melanoma was determined as 47.2 µM; in the assay on HCT-15 colon, 22 µM; in the assay with IGROV1 ovarian, 13.2 µM.
As for `CC(C)OP(=O)(OC(C)C)/C(N)=N/Nc1ccc([N+](=O)[O-])cc1`, the TGI in the assay with SW-620 colon, with HOP-92 NSCLC, in the assay with HOP-62 NSCLC, in the assay with UACC-257 melanoma, in the assay on U251 CNS and in the assay on SK-MEL-28 melanoma was more than 100 µM each time. For the same compound, the TGI in the assay on HCT-15 colon and with SR leukemia was more than 100 µM each time.
Consider `C[Si](C)(C)/C=C\CCO`, for which the TGI in the assay with SW-620 colon, in the assay with HOP-92 NSCLC, in the assay on UACC-257 melanoma, in the assay on U251 CNS, in the assay with SK-MEL-28 melanoma and in the assay with HCT-15 colon was more than 100 µM in each case. Also, the TGI in the assay with SR leukemia and in the assay with IGROV1 ovarian was more than 100 µM throughout.
